From US7754896B2, “Indol-alanine derivatives as selective S1P4-agonists” (Novartis AG, priority 2004, dated 2010) come the findings set out here.

The assay addresses T1, S1P5 (Homo sapiens, UniProt Q9H228).
T1 construct: expressed in transfected cells
The assay can be described thus: Calcium mobilization assay, CHO cells expressing S1P5. The format is cell-based. An excerpt:
The human S1P5 (GI: 30171332 or GenBank™ accession number AY262689, TREMBL: Q9H228) is cloned by a PCR based method. Lung and spleen cDNA (marathon cDNA) is obtained from BD Biosciences Chlontech (BD Biosciences Chlontech, Palo Alto, Calif. 94303, USA); genomic DNA is isolated from HeLa cells using standard procedures. Following oligonucleotides are used for the PCR reaction: forward primer CACCATGGAGTCGGGGCTGCTGCG (−4 to 20, GenBank™ accession number AY262689) and reverse primer 5′-TCAGTCTGCAGCCGGTTCTGATACCAGAGTC (1197 to 1131, AY262689), the initiation of the translation (ATG) and the stop codon are underlined. […] The amplified product of around 1100 bp is analyzed by standard agarose gel-electrophoresis. […]
CHO cells are plated in black Costar plate (96 or 384 well, 50,000 cells or 12,500 cells, respectively) in a MEM with FCS and cultured for 20-24 h at 37° C. in a CO2 incubator. […] After measuring the baseline for 40 sec, the agonist in HBSS is added and the fluorescence is measured at intervals of 2 sec for 3 to 5 min. […]

T1 sequence (Q9H228 whole entry): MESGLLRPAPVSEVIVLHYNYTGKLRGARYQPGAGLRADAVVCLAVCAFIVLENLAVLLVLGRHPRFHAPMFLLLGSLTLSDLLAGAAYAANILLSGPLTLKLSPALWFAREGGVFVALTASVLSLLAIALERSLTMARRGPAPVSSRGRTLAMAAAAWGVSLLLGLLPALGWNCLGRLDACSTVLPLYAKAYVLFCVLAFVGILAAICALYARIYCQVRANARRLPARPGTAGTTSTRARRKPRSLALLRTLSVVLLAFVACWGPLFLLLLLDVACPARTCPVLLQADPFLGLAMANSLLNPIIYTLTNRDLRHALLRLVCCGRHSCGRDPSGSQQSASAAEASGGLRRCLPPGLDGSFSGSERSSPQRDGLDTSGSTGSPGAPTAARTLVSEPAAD

As for `NC(CNC(=O)c1cc2c(-c3ccccc3Cc3ccccc3)cccc2[nH]1)C(=O)O` (stereo not shown) [Example 2], the EC50 was determined as 2.4 µM.
